According to ChEMBL document CHEMBL4507294, “Data for DCP probe MSD-CYP11B2” (2021):
pKi: −log10 of the molar value.

Legend:
[1] = target: Sodium-dependent serotonin transporter (Homo sapiens) (UniProt P31645); settings: Compound concentration 10.0 uM
[2] = target: Melanocortin receptor 4 (Homo sapiens) (UniProt P32245); experiment: Inhibition of Melanocortin MC4 at 10 µM in the Eurofins-Panlabs radioligand binding assay (Eurofins_assay_251350); parameters: ligand concentration 0.02 nM; settings: Compound concentration 10.0 uM
Melanocortin receptor 4 (Homo sapiens), sequence (P32245 whole entry): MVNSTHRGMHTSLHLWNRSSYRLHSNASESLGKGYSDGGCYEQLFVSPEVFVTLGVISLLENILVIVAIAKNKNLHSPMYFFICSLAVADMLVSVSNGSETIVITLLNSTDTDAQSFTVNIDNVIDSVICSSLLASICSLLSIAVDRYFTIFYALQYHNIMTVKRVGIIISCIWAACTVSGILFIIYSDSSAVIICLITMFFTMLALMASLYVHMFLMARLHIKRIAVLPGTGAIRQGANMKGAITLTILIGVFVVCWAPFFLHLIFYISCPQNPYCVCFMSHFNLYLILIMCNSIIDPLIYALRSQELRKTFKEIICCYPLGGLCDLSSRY

[3] = target: Alpha-2A adrenergic receptor (Homo sapiens, UniProt P08913); experiment: GPCRScan assay: inhibition of Alpha2A; parameters: radioligand conc. used [nm] 1.0 – 3.0, parental cells stable MDCK
Alpha-2A adrenergic receptor, sequence (P08913 whole entry): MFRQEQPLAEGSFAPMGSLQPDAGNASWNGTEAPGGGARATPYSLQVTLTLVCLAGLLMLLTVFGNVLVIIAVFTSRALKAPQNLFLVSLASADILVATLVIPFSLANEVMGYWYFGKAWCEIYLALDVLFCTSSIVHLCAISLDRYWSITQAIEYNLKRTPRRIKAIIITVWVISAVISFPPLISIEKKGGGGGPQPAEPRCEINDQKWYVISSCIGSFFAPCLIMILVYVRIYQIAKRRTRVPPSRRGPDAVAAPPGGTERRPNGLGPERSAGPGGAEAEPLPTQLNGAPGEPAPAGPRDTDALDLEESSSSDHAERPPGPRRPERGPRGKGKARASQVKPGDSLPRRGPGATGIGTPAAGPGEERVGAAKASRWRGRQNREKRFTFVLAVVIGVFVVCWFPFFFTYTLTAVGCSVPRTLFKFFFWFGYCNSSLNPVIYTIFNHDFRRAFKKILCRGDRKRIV

[4] = target: Mu-type opioid receptor (Homo sapiens) (UniProt P35372); settings: Compound concentration 10.0 uM
Mu-type opioid receptor (Homo sapiens), sequence (P35372 whole entry): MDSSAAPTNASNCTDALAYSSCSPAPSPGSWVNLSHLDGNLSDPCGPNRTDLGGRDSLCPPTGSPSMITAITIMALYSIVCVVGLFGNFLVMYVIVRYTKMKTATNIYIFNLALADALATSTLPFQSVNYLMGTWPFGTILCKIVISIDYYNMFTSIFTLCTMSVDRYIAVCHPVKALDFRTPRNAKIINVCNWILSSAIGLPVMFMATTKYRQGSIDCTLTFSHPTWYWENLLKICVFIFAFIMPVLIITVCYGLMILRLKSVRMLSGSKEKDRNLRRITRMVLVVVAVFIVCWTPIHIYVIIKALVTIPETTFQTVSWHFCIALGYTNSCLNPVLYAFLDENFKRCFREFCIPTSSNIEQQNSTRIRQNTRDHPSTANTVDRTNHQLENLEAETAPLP

[5] = target: T1, Alpha-2B adrenergic receptor (Homo sapiens) (UniProt P18089)
T1 sequence (whole entry): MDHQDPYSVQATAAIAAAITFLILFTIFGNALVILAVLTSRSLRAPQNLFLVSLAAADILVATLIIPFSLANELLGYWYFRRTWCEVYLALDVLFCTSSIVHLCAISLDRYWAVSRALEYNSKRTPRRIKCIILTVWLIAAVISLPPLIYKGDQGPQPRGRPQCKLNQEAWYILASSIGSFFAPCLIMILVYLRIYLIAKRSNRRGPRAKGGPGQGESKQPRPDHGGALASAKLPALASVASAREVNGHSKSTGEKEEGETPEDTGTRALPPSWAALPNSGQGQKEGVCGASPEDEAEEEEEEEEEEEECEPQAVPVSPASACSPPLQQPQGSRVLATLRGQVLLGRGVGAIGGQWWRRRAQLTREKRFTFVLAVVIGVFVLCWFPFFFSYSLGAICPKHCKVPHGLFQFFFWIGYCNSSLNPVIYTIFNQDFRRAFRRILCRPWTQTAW

[6] = target: T2, Muscarinic acetylcholine receptor M1 (Homo sapiens) (UniProt P11229); settings: Compound concentration 10.0 uM
T2 sequence (whole entry): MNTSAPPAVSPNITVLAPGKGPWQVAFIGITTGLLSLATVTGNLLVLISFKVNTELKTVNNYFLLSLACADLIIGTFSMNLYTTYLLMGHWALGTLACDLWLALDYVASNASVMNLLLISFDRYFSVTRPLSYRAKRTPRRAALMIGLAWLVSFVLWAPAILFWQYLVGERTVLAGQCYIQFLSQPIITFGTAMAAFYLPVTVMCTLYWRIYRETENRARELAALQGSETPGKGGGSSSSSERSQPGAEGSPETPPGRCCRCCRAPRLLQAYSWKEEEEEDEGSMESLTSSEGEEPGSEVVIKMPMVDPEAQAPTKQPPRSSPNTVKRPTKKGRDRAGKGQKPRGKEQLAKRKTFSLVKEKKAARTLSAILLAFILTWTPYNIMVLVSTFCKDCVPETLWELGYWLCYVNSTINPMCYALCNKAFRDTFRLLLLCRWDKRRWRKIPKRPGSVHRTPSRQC

Homo sapiens = species on record: Homo sapiens; experiment: Glutamate, Metabotropic, mGlu5 Eurofins-Panlabs radioligand binding assay; settings: Compound concentration 10.0 uM
[7] = target: Glutamate receptor 2 (Homo sapiens) (UniProt P42262); settings: Rattus norvegicus; Compound concentration 10.0 uM
Glutamate receptor 2 (Homo sapiens), sequence (P42262 whole entry): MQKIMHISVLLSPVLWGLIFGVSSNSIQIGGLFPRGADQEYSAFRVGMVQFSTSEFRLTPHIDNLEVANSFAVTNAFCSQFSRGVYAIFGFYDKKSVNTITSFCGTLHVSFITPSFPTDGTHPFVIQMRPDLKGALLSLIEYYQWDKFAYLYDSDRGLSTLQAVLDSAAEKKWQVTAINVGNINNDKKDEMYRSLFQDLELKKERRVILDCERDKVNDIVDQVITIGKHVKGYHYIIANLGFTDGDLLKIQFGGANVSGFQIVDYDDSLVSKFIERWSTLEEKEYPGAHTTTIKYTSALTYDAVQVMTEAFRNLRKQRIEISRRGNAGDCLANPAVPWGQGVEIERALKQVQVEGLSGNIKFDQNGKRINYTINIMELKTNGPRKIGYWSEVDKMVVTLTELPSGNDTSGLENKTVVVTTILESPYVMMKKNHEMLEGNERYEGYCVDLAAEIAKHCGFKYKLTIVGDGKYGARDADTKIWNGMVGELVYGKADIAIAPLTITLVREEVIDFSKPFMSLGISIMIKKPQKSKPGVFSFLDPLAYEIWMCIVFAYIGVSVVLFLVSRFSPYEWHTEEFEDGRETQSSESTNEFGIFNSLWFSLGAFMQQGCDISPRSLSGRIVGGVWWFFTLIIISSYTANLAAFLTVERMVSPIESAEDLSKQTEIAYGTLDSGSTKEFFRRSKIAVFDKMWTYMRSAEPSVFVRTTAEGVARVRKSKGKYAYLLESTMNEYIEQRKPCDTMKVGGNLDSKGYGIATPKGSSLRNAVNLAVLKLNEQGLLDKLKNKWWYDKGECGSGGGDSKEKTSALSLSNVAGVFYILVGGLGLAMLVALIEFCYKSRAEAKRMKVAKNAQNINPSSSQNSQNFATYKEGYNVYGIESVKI

[8] = target: T3, Alpha-2B adrenergic receptor (Homo sapiens, UniProt P18089); experiment: GPCRScan assay: inhibition of Alpha2B; parameters: radioligand conc. used [nm] 1.5 – 2.0, parental cells HEKT
T3 sequence (P18089 whole entry): T1 sequence (whole entry)

Rattus norvegicus = species on record: Rattus norvegicus; experiment: Inhibition of Glutamate, NMDA, Phencyclidine at 10 µM in the Eurofins-Panlabs radioligand binding assay (Eurofins_assay_233000); assay type: protein-complex assay; settings: Compound concentration 10.0 uM
[9] = target: Adenosine receptor A2a (Homo sapiens) (UniProt P29274); settings: Compound concentration 10.0 uM
Adenosine receptor A2a (Homo sapiens), sequence (P29274 whole entry): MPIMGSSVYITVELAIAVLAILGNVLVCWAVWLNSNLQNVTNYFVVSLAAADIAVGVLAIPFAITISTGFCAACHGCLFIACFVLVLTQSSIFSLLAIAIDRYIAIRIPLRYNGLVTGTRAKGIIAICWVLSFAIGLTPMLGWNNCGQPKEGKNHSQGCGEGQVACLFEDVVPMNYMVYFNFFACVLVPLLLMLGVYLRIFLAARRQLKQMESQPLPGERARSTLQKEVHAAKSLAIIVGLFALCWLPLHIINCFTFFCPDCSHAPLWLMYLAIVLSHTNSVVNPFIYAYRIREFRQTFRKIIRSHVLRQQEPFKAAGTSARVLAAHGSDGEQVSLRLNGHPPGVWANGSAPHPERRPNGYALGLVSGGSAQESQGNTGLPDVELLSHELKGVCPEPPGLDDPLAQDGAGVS

[10] = target: T4, 5-hydroxytryptamine receptor 2C (Homo sapiens) (UniProt P28335); settings: Compound concentration 10.0 uM
T4 sequence (whole entry): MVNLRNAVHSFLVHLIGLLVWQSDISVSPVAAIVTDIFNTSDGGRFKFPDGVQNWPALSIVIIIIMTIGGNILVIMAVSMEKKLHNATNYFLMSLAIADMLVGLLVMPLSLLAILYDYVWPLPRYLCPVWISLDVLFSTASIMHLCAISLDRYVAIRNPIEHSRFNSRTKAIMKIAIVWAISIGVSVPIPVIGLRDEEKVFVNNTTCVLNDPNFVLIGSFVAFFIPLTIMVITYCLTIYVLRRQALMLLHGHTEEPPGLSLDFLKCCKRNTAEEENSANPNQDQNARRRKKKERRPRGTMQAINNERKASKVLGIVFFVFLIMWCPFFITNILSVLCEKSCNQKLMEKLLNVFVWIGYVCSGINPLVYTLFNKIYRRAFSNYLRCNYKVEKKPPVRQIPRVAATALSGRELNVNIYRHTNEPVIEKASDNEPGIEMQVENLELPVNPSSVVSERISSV

[11] = target: T5, Muscarinic acetylcholine receptor M2 (Homo sapiens) (UniProt P08172); settings: Compound concentration 10.0 uM
T5 sequence (whole entry): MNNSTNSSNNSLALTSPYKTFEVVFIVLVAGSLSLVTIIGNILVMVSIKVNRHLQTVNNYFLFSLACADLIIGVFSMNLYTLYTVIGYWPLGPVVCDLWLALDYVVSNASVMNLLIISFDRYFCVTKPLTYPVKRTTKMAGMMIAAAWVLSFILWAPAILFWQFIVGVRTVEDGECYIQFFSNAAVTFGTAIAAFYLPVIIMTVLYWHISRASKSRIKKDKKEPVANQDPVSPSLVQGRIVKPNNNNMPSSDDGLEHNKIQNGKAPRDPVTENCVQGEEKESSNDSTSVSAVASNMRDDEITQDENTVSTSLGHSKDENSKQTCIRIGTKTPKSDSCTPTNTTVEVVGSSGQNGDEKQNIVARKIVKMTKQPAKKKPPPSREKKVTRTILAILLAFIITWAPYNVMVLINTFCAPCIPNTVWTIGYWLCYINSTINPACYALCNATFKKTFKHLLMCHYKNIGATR

Sodium-dependent serotonin transporter (Homo sapiens), sequence (P31645 whole entry, looked up): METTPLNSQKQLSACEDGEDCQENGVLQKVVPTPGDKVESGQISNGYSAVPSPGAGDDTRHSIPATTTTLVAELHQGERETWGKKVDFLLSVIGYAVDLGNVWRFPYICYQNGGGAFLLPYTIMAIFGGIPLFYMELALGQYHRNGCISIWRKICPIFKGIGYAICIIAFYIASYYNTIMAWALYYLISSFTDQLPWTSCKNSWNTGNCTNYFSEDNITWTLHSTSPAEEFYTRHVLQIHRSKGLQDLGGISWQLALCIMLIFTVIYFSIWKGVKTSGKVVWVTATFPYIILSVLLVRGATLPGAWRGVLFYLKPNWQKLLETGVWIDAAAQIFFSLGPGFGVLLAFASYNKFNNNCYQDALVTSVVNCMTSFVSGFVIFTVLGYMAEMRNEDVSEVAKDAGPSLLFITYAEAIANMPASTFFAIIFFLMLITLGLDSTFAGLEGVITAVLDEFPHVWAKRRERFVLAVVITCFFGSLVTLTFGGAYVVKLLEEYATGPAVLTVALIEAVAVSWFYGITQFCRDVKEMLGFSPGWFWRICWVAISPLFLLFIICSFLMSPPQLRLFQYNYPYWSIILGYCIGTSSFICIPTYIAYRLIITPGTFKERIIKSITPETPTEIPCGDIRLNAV

In the case of `FC(F)(F)c1ccc2c(c1)nc(-c1cccnc1)n2C1CC1` [MSD-CYP11B2-Negative-control], the inhibition [1] was -5.44%.
For `CC(C)(O)c1cncc(-c2nc3ccc(F)cc3n2C2CC2)c1` [MSD-CYP11B2], the inhibition [2] was -1%, the pKi [3] was 5.58 and the inhibition [4] was 7%. For the same molecule, the inhibition ([5]; Compound concentration 0.1 uM) was 9%, the inhibition ([5]; Compound concentration 1.0 uM) was 20% and the inhibition ([5]; Compound concentration 10.0 uM) was 65%. For the same molecule, the inhibition [6] was -4%, the inhibition (Homo sapiens) was 25% and the inhibition [7] was 22%. For the same molecule, the pKi [8] was 5.84, the inhibition (Rattus norvegicus) was 3% and the inhibition [9] was -5%. The inhibition [10] was 11% and the inhibition [11] was 6%.
